Assay results as given in patent US7632864B2, “Gabapentin analogues and process thereof” (Hikal Ltd., priority 2005, dated 2009).

Key:
[1] = water solubility (precipitation of free amino acid at pH 7); format: physicochemical; settings: compared to the other gabapentin analogues
Protocol: The process for the preparation of the cis and trans isomer of 4-t-butylgabapentin has been achieved, as outlined in Fig. I. 4-t-Butyl-cyclohexanone (I) was treated with ethylcyano acetate and ammonia in methanol to yield ammonium salt of dicyanoimide (2). Hydrolysis of (2) with hot sulfuric acid afforded the diacid (3) which was converted to the anhydride (4). (4) treated with aqueous ammonia to give the mono-amide (5) as a mixture containing approximately equal proportions of stereoisomers. Reaction of (5) with sodium hypobromite solution led to the formation of lactam (6) as a mixture of stereoisomers [proton NMR (7) and its isomer with NCH2 axial in the ratio of 3:2] from which one of the isomer could be crystallized out in pure form from methanol-hexane, mp 176-7° C. and its structure identified as (7) by NMR and single crystal X-ray analysis (Hydrolysis of lactam (6) with hot concentrated HCl gave a mixture of isomers of 4-t-butyl gabapentin hydrochloride (8). Crystallization of (8) from water afforded in pure form, mp 146-147° C., the isomer hemihydrate (9) with aminomethyl group in the anxial position. […]

[2] = test system: alpha 2 detla sub unit derived from porcine brain tissue; settings: radio ligand binding, compound without stereochemistry, value from U.S. Pat. No. 6,103,932; cited from earlier work

CC(C)(C)C1CCC(CN)(CC(=O)O)CC1 (stereo not shown) [Compound 10, 4-t-butylgabapentin]
water solubility [1]: much poorer water solubility
melting point: 182 to 183 °C

CC(C)(C)C1CCC(CN)(CC(=O)O)CC1 (stereo not shown) [4-t-butyl gabapentin]
melting point: 176 to 180 °C
IC50 [2]: 200 µM
